Values joined by “and” are separate entries in the source; they are usually repeats but may differ in a detail not shown here. Equal entries are not always repeated.
Experiments:
[1] = tested on: influenza virus A/WSN/33 (H1N1); assay: microbe, parasite or virus in culture; format: cell-based; conditions: MDCK, 72 h; for inhibition at 12.5 µM / inhibition at 25 µM / inhibition at 50 µM / inhibition at 100 µM: H1N1|WSN, read-out: Antiviral activity in CPE assay; for EC50: read-out: Cytopathic Effect Assay (A/WSN/33, H1N1) EC50
[2] = tested on: influenza virus A/WSN/33 (H1N1); assay: Plaque inhibition assay in MDCK cells; format: cell-based; conditions: MDCK, read-out: Plaque Inhibition Assay (A/WSN/33, H1N1) Inhibition Rate; for inhibition at 100 µM: concentration 100 µM; for inhibition at 50 µM: concentration 50 µM
in vitro [3] = format: cell-based, canine; conditions: dog
Description: (§1) The 3-(4,5-dimethylthiazol-2-yl)-2,5-diphenyltetrazolium bromide (MTT) method was performed to assess the cytotoxicity of target compounds in MDCK cells and HEK293T cells. Firstly, MDCK cells or HEK293T cells were seeded into the 96-well plate. Then, the media containing test compounds replaced the growth media after 48 h. Incubate MDCK cells or HEK293T cells with test compounds for 72 h at 37 °C in a humidified 5% CO2 incubator. Later, MTT solution (5 mg/mL in PBS) was added into each well and plates were incubated for 4 h at 37 °C. Then, add a solubilization solution to lyse cells. Finally, absorbance was read at 620 nm using an ELISA plate reader (Tecan Sunrise) after 3 h of further incubation at 37 °C. We set the values obtained from the wells treated with only DMSO as 100% of viable cells.

MDCK cells = assay: in vitro; format: cell-based, canine; conditions: dog, 72 h
Description: as §1

HEK293T cells = assay: in vitro; format: cell-based; conditions: human, 72 h
Description: as §1

in vitro [4] = format: cell-based; conditions: human
Description: as §1

PA-PB1 endonuclease = tested on: PA-PB1 endonuclease; parameters: method as in supplement 1-7; conditions: training and test set compounds collected from literature; ref supplement 1-7; read-out: IC50 value Experimental (PA-PB1 endonuclease inhibitors); cited from earlier work

Row | SMILES | inhibition at 12.5 µM [1] | inhibition at 25 µM [1] | inhibition at 50 µM [1] | inhibition at 100 µM [1] | EC50 [1] | melting point | inhibition at 100 µM [2] | CC50 at 72 h (in vitro [3]) | MDCK cells survival rate (MDCK cells; 12.5 µmol·L−1) | MDCK cells survival rate (MDCK cells; 25 µmol·L−1) | MDCK cells survival rate (MDCK cells; 50 µmol·L−1) | MDCK cells survival rate (MDCK cells; 100 µmol·L−1) | HEK293T cells survival rate (HEK293T cells; 3.125 µmol·L−1) | HEK293T cells survival rate (HEK293T cells; 6.25 µmol·L−1) | HEK293T cells survival rate (HEK293T cells; 12.5 µmol·L−1) | HEK293T cells survival rate (HEK293T cells; 25 µmol·L−1) | HEK293T cells survival rate (HEK293T cells; 50 µmol·L−1) | HEK293T cells survival rate (HEK293T cells; 100 µmol·L−1) | CC50 at 72 h (in vitro [4]) | IC50 (PA-PB1 endonuclease) | also measured
1 | COc1ccccc1OCCNC(=O)c1ccc(Nc2ccnc3ccc(Cl)cc23)cc1 [Compound G25, N-[2-(2-Methoxyphenoxy)ethyl]-4-[(6-chloroquinolin-4-yl)amino]benzamide] | 26.1 ± 0.67% | 25.7 ± 2.29% | 22.5 ± 1.29% | 22.3 ± 0.4% | > 100 µM | 247.7 to 248.4 °C | 0% | > 100 µM | 92.58±5.23% | 85.96±5.73% | 86.83±3.19% | 79.32±11.90% | 104.71±1.87% | 103.50±6.33% | 99.13±1.95% | 65.73±7.64% | 101.61±11.65% | 110.35±11.54% | > 100 µM | – | –
2 | COc1ccccc1OCCNC(=O)c1ccc(Nc2ccnc3cc(C)ccc23)cc1 [Compound G21, N-[2-(2-Methoxyphenoxy)ethyl]-4-[(7-methylquinolin-4-yl)amino]benzamide] | 43 ± 7.31% | 39.8 ± 7.16% | 39.8 ± 6.58% | 50.1 ± 5.45% | > 100 µM | 209.6 to 210.6 °C | 11.5% | > 100 µM | 83.41±3.67% | 80.18±7.27% | 93.28±9.93% | 88.84±3.59% | 117.39±1.03% | 103.95±2.65% | 105.56±6.72% | 102.64±2.91% | 110.67±8.55% | 50.09±0.70% | > 100 µM | – | –
3 | O=C(c1ccc(Nc2ccnc3cc(C(F)(F)F)ccc23)cc1)N1CCN(c2cccc(C(F)(F)F)c2)CC1 [Compound G16, {4-[3-(Trifluoromethyl)phenyl]piperazin-1-yl}{4-{[7-(trifluoromethyl)quinolin-4-yl]amino}phenyl}methanone] | 15.7 ± 1.33% | 36.8 ± 3.16% | 33.8 ± 2.71% | 45.7 ± 2.09% | > 100 µM | 217 to 218.5 °C | – | > 100 µM | 83.03±1.26% | 85.52±2.56% | 92.23±7.81% | 103.91±10.21% | 89.31±3.06% | 79.52±2.87% | 80.26±3.54% | 75.35±5.51% | 70.68±3.36% | 66.51±2.68% | > 100 µM | – | –
4 | CCC(C)NC(=O)c1ccccc1NC(=O)c1cccc(S(=O)(=O)Nc2ccccc2)c1 (centres unmarked) [Compound H04] | – | – | – | – | – | – | – | – | – | – | – | – | – | – | – | – | – | – | – | 9.2 µM | –
5 | CCCNC(=O)c1ccc(Nc2ccnc3cc(C(F)(F)F)ccc23)cc1 [Compound G03, N-Propyl-4-{[7-(trifluoromethyl)quinolin-4-yl]amino}benzamide] | 54.9 ± 4.62% | 56.7 ± 11.7% | 70.3 ± 9.33% | 78.7 ± 8.35% | 10 ± 1.9 µM | 242.5 to 243.4 °C | < 10% | > 100 µM | 107.23±8.32% | 128.70±3.04% | 132.67±1.65% | 144.22±4.46% | 98.97±9.80% | 89.61±8.87% | 97.78±4.47% | 91.10±7.09% | 84.12±2.84% | 74.22±4.02% | > 100 µM | – | –
6 | Cc1ccc(N2CCN(C(=O)c3ccc(Nc4ccnc5cc(C(F)(F)F)ccc45)cc3)CC2)cc1 [Compound G14, [4-(P-tolyl)piperazin-1-yl]{4-{[7-(trifluoromethyl)quinolin-4-yl]amino}phenyl}methanone] | 16.43 ± 0.12% | 20.7 ± 3.82% | 23.4 ± 2.31% | 27.9 ± 2.05% | > 100 µM | 192 to 193.8 °C | – | > 100 µM | 82.40±6.45% | 91.16±1.34% | 72.26±17.99% | 56.76±2.08% | 105.78±7.34% | 95.00±7.82% | 89.38±1.59% | 80.67±2.20% | 76.77±5.03% | 77.49±2.55% | > 100 µM | – | inhibition at 25 µM ([2]; concentration 25 µM): < 10%
7 | COc1ccccc1OCCNC(=O)c1ccc(Nc2ccnc3ccc(Br)cc23)cc1 [Compound G24, N-[2-(2-Methoxyphenoxy)ethyl]-4-[(6-bromoquinolin-4-yl)amino]benzamide] | 21 ± 2.86% | 19.2 ± 0.69% | 19.2 ± 0.42% | 18.4 ± 1.27% | > 100 µM | 240.5 to 241.3 °C | < 10% | > 100 µM | 97.97±11.82% | 71.98±13.89% | 87.44±3.70% | 105.38±8.08% | 113.31±4.70% | 96.70±5.40% | 91.88±3.61% | 91.06±10.23% | 69.53±3.05% | 72.95±4.52% | > 100 µM | – | –
8 | O=C(c1ccc(Nc2ccnc3cc(C(F)(F)F)ccc23)cc1)N1CCN(c2ccc(OC(F)(F)F)cc2)CC1 [Compound G15, {4-[4-(Trifluoromethoxy)phenyl]piperazin-1-yl}{4-{[7-(trifluoromethyl)quinolin-4-yl]amino}phenyl}methanone] | 36.9 ± 0.82% | 39.8 ± 4.98% | 35.3 ± 1.81% | 45.6 ± 5.12% | > 100 µM | 195.9 to 196.4 °C | – | > 100 µM | 92.13±3.70% | 82.80±5.22% | 93.36±4.01% | 76.18±1.27% | 105.64±1.62% | 104.46±0.45% | 93.38±3.30% | 103.00±3.15% | 89.01±2.08% | 81.59±1.91% | > 100 µM | – | inhibition at 50 µM [2]: 61%
9 | O=C1c2ccccc2C(=O)c2c1cc(Nc1ccccc1)c1nsnc21 [Compound H10] | – | – | – | – | – | – | – | – | – | – | – | – | – | – | – | – | – | – | – | 9.5 µM | –
10 | O=C(O)c1ccc(Nc2ccnc3cc(C(F)(F)F)ccc23)cc1 [4-{[7-(Trifluoromethyl)quinolin-4-yl]amino}benzoic acid] | – | – | – | – | 22.9 µM | 323.7 to 324.9 °C | – | – | – | – | – | – | – | – | – | – | – | – | – | – | inhibition at 50 µM [2]: 50%
11 | Cc1cc(-c2ccccc2)n2nc(C(=O)Nc3sc4c(c3C(N)=O)CCCCC4)nc2n1 [Compound H01] | – | – | – | – | – | – | – | – | – | – | – | – | – | – | – | – | – | – | – | 1.1 µM | –
12 | Cc1cc(-c2ccccc2)n2nc(C(=O)Nc3sc4c(c3C(N)=O)CCC4)nc2n1 [Compound H03] | – | – | – | – | – | – | – | – | – | – | – | – | – | – | – | – | – | – | – | 6.2 µM and 7.5 µM | –
13 | NC(=O)c1c(NC(=O)c2nc3nc(-c4ccccc4)cc(C(F)(F)F)n3n2)sc2c1CCCC2 [Compound H02, N-(3-carbamoyl-4,5,6,7-tetrahydrobenzo[b]thiophen-2-yl)-5-phenyl-7-(trifluoromethyl)-[1,2, 4]triazolo[1,5-a]pyrimidine-2-carboxamide] | – | – | – | – | – | – | – | – | – | – | – | – | – | – | – | – | – | – | – | 7.5 µM and 6.2 µM | –

— paper PMC9181126, “Design, Synthesis, Molecular Docking Analysis and Biological Evaluations of 4-[(Quinolin-4-yl)amino]benzamide Derivatives as Novel Anti-Influenza Virus Agents” (International Journal of Molecular Sciences, 2022)
